Where a name gives a salt, the structure may show the parent alone.
How the values were obtained:
5-HT1A receptor [1] = target: T1, 5-HT1A receptor (Rattus norvegicus, UniProt P19327); experiment: biochemical; assay type: binding; conditions: displacement of [3H]8-OH-DPAT, rat brain membranes, 37° C., 10 minutes; test compounds as HCl salt
T1 sequence (P19327 1-422): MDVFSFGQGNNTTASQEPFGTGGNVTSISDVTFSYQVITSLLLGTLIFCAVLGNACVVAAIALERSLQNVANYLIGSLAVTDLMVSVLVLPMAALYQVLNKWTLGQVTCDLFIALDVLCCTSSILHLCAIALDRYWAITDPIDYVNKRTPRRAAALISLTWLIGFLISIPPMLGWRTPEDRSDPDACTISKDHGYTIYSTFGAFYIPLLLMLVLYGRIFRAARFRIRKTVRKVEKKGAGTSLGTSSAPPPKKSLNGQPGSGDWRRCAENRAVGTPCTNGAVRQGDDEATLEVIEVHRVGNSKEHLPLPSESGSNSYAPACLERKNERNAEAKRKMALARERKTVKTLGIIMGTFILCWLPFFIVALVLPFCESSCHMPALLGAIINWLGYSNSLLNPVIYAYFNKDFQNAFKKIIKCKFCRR
Method: Thus, rat brain was homogenized in Tris-HCl buffer and centrifuged. The resultant precipitates were homogenized again with Tris-HCl buffer and incubated at 37° C. for ten minutes. The mixture was centrifuged again, and the precipitates were homogenized with Tris-HCl buffer containing pergiline, calcium chloride, and ascorbic acid to obtain a membrane preparation for use in the binding assay.
The preparation was mixed with [3H]8-OH-DPAT and a compound to be tested, and incubated at 37° C. for 10 minutes, filtered with whatman GF/B filter. Radioactivity remaining on the filter was measured by […].
Affinity of the test compound to 5-HT1A receptor is represented by Ki value which is calculated from the following equation. [formula] wherein [L] is the concentration of [3H]8-OH-DPAT, Kd is a dissociation constant, and IC50 is the concentration of test compound requisite for attaining 50% inhibition of the binding of [3H]8-OH-DPAT.

rats = experiment: conflict test (modified method of Vogel et al), anxiolytic activity; assay type: in vivo, rat; conditions: oral, 1 hour after administration, control 7.4
Method: The conflict test was performed to examine the anxiolytic activity of compounds. A modification of the method of Vogel et al (Psychopharmacology21, 1, 1971) was used.
Rats were deprived of water for 38 hours prior to the first training session (unpunished session). Each animal was placed in a conflict test apparatus. The rat was allowed to drink water through a spout, and the frequency of drinking action within 10 min was counted. Only rats making more than 100 licks progressed to a further 24 hr deprivation of water. Twenty four hours after the unpunished session, the rat was placed again in the test box. The second session (pre-drug punished session) consisting of a 3 min period started when the rat completed 20 licks and received the first electric shock. After every 20 unpunished licks, subsequent licking was punished. Only rats in which the number of receiving the shocks was reduced by at most 25 times during the pre-drug punished session were included in the test.
The compound to be tested was orally administered to each rat. One hour after the administration, the rat was re-placed in the apparatus to be examined. The number of shocks was counted for three minutes. Buspirone, an anxioselective anxiolytic drug, was used as a positive control.
The anti-conflict activity was evaluated to be positive when the number of shocks in the treated group was higher than that in the control group.

male and female rats = experiment: Acute Toxicity, oral, 7-days observation; assay type: in vivo, rat; conditions: p.o., suspended in 0.5% CMC-Na
Method: The compounds (I) suspended in 0.5% CMC-Na aqueous solution were orally administered to male and female rats, and 7-days observation was conducted. ALD (approximate lethal dose) value for Compound No. 1 was 100 mg/kg (p.o.).

5-HT1A receptor [2] = conditions: in words, literature; cited from earlier work

Row | Compound | Ki (5-HT1A receptor [1]) | other results
1 | c1ccc2c(c1)OCC(CNCCCOc1cccc3c1OCO3)O2 (racemic) [No. 13 (dl)] | 9.7 nM | –
2 | c1ccc2c(c1)OC[C@H](CNCCCOc1ccc3c(c1)OCO3)O2 [Compound No. 1, 5-[3-{(2S)-(1,4-Benzodioxan-2-ylmethyl) -amino}propoxy[-1,3-benzodioxol hydrochloride] | 0.29 nM | Frequency of receiving the shocks (rats; 0.05 mg/kg): 20.1 times/3 minutes; ALD (approximate lethal dose) (male and female rats): 100 mg/kg
3 | c1ccc2c(c1)OC[C@H](CNCCCCOc1ccc3c(c1)OCO3)O2 [Compound No. 4, 5-[4-{(2S)-(1,4-Benzodioxan-2-ylmethyl) -amino}butoxy]-1,3-benzodioxol hydrochloride] | 0.91 nM | –
4 | O=C1c2ccccc2S(=O)(=O)N1CCCCN1CCN(c2ncccn2)CC1 [Ipsapirone, 2-{4-[4-(2-pyrimidinyl)-1-piperazynyl]butyl}-1,2-benzisothiazol-3-(2H)one-1,1-dioxydehydrochloride] | – | 5-HT1A receptor binding (known compounds) (5-HT1A receptor [2]): 5-HT1A receptor-binding compounds
5 | O=C1C2C3CCC(C3)C2C(=O)N1CCCCN1CCN(c2ncccn2)CC1 (stereo not drawn) [SM-3997, 3aα, 4β, 7β, 7aβ-hexahydro-2-{4-[4-(2-pyrimidinyl)-1-piperazinyl]butyl}-4,7-methan-1H-isoindol-1,3(2H)dione dihydrogen citrate] | – | 5-HT1A receptor binding (known compounds) (5-HT1A receptor [2]): 5-HT1A receptor-binding compounds
6 | c1ccc2c(c1)OC[C@H](CNCCCOc1ccc3c(c1)OCCO3)O2 [compound 2] | – | Frequency of receiving the shocks (rats; 0.2 mg/kg): 21.8 times/3 minutes
7 | c1ccc2c(c1)OC[C@H](CNCCCOc1ccc3c(c1)OCCCO3)O2 [compound 3] | – | Frequency of receiving the shocks (rats; 0.2 mg/kg): 18.0 times/3 minutes

Second part, led by results:

Row | Ki (5-HT1A receptor [1]) | Compound | other results
8 | 1.6 nM | c1ccc2c(c1)OCC(CNCCCOc1ccc3c(c1)OCO3)O2 (racemic) [No. 1 (dl)] | Frequency of receiving the shocks (rats; 0.25 mg/kg): 20.9 times/3 minutes
9 | 2.5 nM | c1ccc2c(c1)OCC(CNCCCOc1ccc3c(c1)OCCO3)O2 (racemic) [No. 2 (dl)] | –
10 | 7.6 nM | c1ccc2c(c1)OCC(CNCCCOc1ccc3c(c1)OCCCO3)O2 (racemic) [No. 3 (dl)] | –
11 | 2.9 nM | c1ccc2c(c1)OCC(CNCCCCOc1ccc3c(c1)OCCCO3)O2 (racemic) [No. 6 (dl)] | –
12 | 4.09 nM | c1ccc2c(c1)OCC(CNCCCCCOc1ccc3c(c1)OCO3)O2 (racemic) [No. 7 (dl)] | –
13 | 1.84 nM | c1ccc2c(c1)OC[C@H](CNCCCCCOc1ccc3c(c1)OCO3)O2 [Compound No. 7, 5-[5-{(2S)-(1,4-Benzodioxan-2-ylmethyl) -amino}pentyloxy]-1,3-benzodioxol hydrochloride] | –
14 | 3.9 nM | c1ccc2c(c1)OC[C@@H](CNCCCOc1ccc3c(c1)OCO3)O2 [No. 1 (R)] | Frequency of receiving the shocks (rats; 0.5 mg/kg): 12.5 times/3 minutes
